Reference: patent US9850256B2, “Antibacterial basic biaromatic derivatives with aminoalkoxy substitution” (priority 2014, dated 2017)
Converted amounts (≈) assume the structure as drawn.

Legend:
Assay in all cases: Bacterial growth minimal inhibitory concentration (microdilution, cation-adjusted Mueller-Hinton Broth)
S. aureus A798 = type: cell-based, Staphylococcus aureus; details: multiply-resistant strain (methicillin- and quinolone-resistant); for MIC: Staphylococcus aureus, A798
Method: (§1) Minimal Inhibitory Concentrations (MICs; mg/L) were determined in cation-adjusted Mueller-Hinton Broth by a microdilution method following the description given in “Methods for Dilution Antimicrobial Susceptibility Tests for Bacteria that Grow Aerobically”, Approved standard, 7th ed., Clinical and Laboratory Standards Institute (CLSI) Document M7-A7, Wayne, Pa., USA (2006).
(§2) All Example compounds were tested against several Gram positive and Gram negative bacteria. […] Staphylococcus aureus A798 is a multiply-resistant strain (methicillin- and quinolone-resistant), Klebsiella pneumoniae T6474 is a multiply-resistant strain (penicillin-, cephalosporin- and in particular quinolone-resistant), while E. coli ATCC25922 and Pseudomonas aeruginosa ATCC 27853 are quinolone-sensitive strains.

E. coli ATCC25922 = type: cell-based; details: quinolone-sensitive strain; for MIC: Escherichia coli, ATCC25922
Method: as §1, §2

K. pneumoniae T6474 = type: cell-based, Klebsiella pneumoniae; details: multiply-resistant strain (penicillin-, cephalosporin- and quinolone-resistant); for MIC: Klebsiella pneumoniae, T6474
Method: as §1, §2

P. aeruginosa ATCC 27853 = type: cell-based, Pseudomonas aeruginosa; details: quinolone-sensitive strain; for MIC: Pseudomonas aeruginosa, ATCC27853
Method: as §1, §2

Row | Structure (SMILES) | MIC (S. aureus A798) | MIC (E. coli ATCC25922) | MIC (K. pneumoniae T6474) | MIC (P. aeruginosa ATCC 27853) | MIC for S. aureus A798 (S. aureus A798) | MIC for E. coli ATCC25922 (E. coli ATCC25922) | MIC for K. pneumoniae T6474 (K. pneumoniae T6474) | MIC for P. aeruginosa ATCC 27853 (P. aeruginosa ATCC 27853)
1 | NC1(COc2cccc(-c3cccc(CNCC[C@H]4CN(c5ccc6c(n5)NC(=O)CO6)C(=O)O4)c3)c2)CC1 [Example 14, 6-[(S)-5-(2-{[3′-(1-amino-cyclopropylmethoxy)-biphenyl-3-ylmethyl]-amino}-ethyl)-2-oxo-oxazolidin-3-yl]-4H-pyrido[3,2-b][1,4]oxazin-3-one] | 1 µg/mL (≈ 1.89 µM) | 2 µg/mL (≈ 3.78 µM) | 2 µg/mL (≈ 3.78 µM) | 8 µg/mL (≈ 15.1 µM) | – | – | – | –
2 | NCCOc1cncc(-c2cccc(CNCC[C@H]3CN(c4ccc5c(n4)NC(=O)CO5)C(=O)O3)c2)n1 [Example 15, 6-[(S)-5-(2-{3-[6-(2-amino-ethoxy)-pyrazin-2-yl]-benzylamino}-ethyl)-2-oxo-oxazolidin-3-yl]-4H-pyrido[3,2-b][1,4]oxazin-3-one] | 0.5 µg/mL (≈ 0.989 µM) | 1 µg/mL (≈ 1.98 µM) | 2 µg/mL (≈ 3.96 µM) | 1 µg/mL (≈ 1.98 µM) | – | – | – | –
3 | C[C@H](N)COc1cccc(-c2cccc(CNCC[C@H]3CN(c4ccc5c(n4)NC(=O)CO5)C(=O)O3)c2)n1 [Example 18, 6-[(S)-5-(2-{3-[6-((S)-2-amino-propoxy)-pyridin-2-yl]-benzylamino}-ethyl)-2-oxo-oxazolidin-3-yl]-4H-pyrido[3,2-b][1,4]oxazin-3-one] | 0.5 µg/mL (≈ 0.964 µM) | 1 µg/mL (≈ 1.93 µM) | 2 µg/mL (≈ 3.86 µM) | 1 µg/mL (≈ 1.93 µM) | – | – | – | –
4 | COc1cc(OCCN)cc(-c2cccc(CNCC[C@H]3CN(c4ccc5c(n4)NC(=O)CO5)C(=O)O3)c2)c1 [Example 21, 6-[(S)-5-(2-{[3′-(2-amino-ethoxy)-5′-methoxy-biphenyl-3-ylmethyl]-amino}-ethyl)-2-oxo-oxazolidin-3-yl]-4H-pyrido[3,2-b][1,4]oxazin-3-one] | 0.5 µg/mL (≈ 0.937 µM) | 1 µg/mL (≈ 1.87 µM) | 2 µg/mL (≈ 3.75 µM) | 1 µg/mL (≈ 1.87 µM) | – | – | – | –
5 | O=C1COc2ccc(N3C[C@H](CCNCc4cccc(-c5cccc(OC6CNC6)c5)c4)OC3=O)nc2N1 [Example $105, 6-[(S)-5-(2-{[3′-(azetidin-3-yloxy)-biphenyl-3-ylmethyl]-amino}-ethyl)-2-oxo-oxazolidin-3-yl]-4H-pyrido[3,2-b][1,4]oxazin-3-one] | 2 µg/mL (≈ 3.88 µM) | 2 µg/mL (≈ 3.88 µM) | 2 µg/mL (≈ 3.88 µM) | 2 µg/mL (≈ 3.88 µM) | – | – | – | –
6 | O=C1COc2ccc(N3C[C@H](CCNCc4cccc(-c5cccc(OCC6CNC6)n5)c4)OC3=O)nc2N1 [Example $106, 6-[(S)-5-(2-{3-[6-(azetidin-3-ylmethoxy)-pyridin-2-yl]-benzylamino}-ethyl)-2-oxo-oxazolidin-3-yl]-4H-pyrido[3,2-b][1,4]oxazin-3-one] | 2 µg/mL (≈ 3.77 µM) | 2 µg/mL (≈ 3.77 µM) | 4 µg/mL (≈ 7.54 µM) | 1 µg/mL (≈ 1.88 µM) | – | – | – | –
7 | O=C1COc2ccc(N3C[C@H](CCNCc4cccc(-c5cccc(OC6CNC6)n5)c4)OC3=O)nc2N1 [Example $107, 6-[(S)-5-(2-{3-[6-(azetidin-3-yloxy)-pyridin-2-yl]-benzylamino}-ethyl)-2-oxo-oxazolidin-3-yl]-4H-pyrido[3,2-b][1,4]oxazin-3-one] | 1 µg/mL (≈ 1.94 µM) | 0.5 µg/mL (≈ 0.968 µM) | 2 µg/mL (≈ 3.87 µM) | 0.5 µg/mL (≈ 0.968 µM) | – | – | – | –

Now from value to compound:

Row | MIC (S. aureus A798) | MIC (E. coli ATCC25922) | MIC (K. pneumoniae T6474) | MIC (P. aeruginosa ATCC 27853) | MIC for S. aureus A798 (S. aureus A798) | MIC for E. coli ATCC25922 (E. coli ATCC25922) | MIC for K. pneumoniae T6474 (K. pneumoniae T6474) | MIC for P. aeruginosa ATCC 27853 (P. aeruginosa ATCC 27853) | Structure (SMILES)
8 | 0.5 µg/mL | 2 µg/mL | 4 µg/mL | 0.5 µg/mL | – | – | – | – | NCCOc1cccc(-c2ccnc(CNCC[C@H]3CN(c4ccc5c(n4)NC(=O)CO5)C(=O)O3)c2)n1.O=CO [Example 16, 6-[(S)-5-(2-{[6-(2-amino-ethoxy)-[2,4′]bipyridinyl-2′-ylmethyl]-amino}-ethyl)-2-oxo-oxazolidin-3-yl]-4H-pyrido[3,2-b][1,4]oxazin-3-one formate]
9 | 0.5 µg/mL (≈ 0.964 µM) | 1 µg/mL (≈ 1.93 µM) | 2 µg/mL (≈ 3.86 µM) | 1 µg/mL (≈ 1.93 µM) | – | – | – | – | C[C@@H](N)COc1cccc(-c2cccc(CNCC[C@H]3CN(c4ccc5c(n4)NC(=O)CO5)C(=O)O3)c2)n1 [Example 17, 6-[(S)-5-(2-{3-[6-((R)-2-amino-propoxy)-pyridin-2-yl]-benzylamino}-ethyl)-2-oxo-oxazolidin-3-yl]-4H-pyrido[3,2-b][1,4]oxazin-3-one]
10 | 8 µg/mL | 1 µg/mL | 4 µg/mL | 1 µg/mL | – | – | – | – | NCCOc1cc(-c2cccc(CNCC[C@H]3CN(c4ccc5c(n4)NC(=O)CO5)C(=O)O3)c2)ccn1.O=CO [Example 19, 6-[(S)-5-(2-{3-[2-(2-amino-ethoxy)-pyridin-4-yl]-benzylamino}-ethyl)-2-oxo-oxazolidin-3-yl]-4H-pyrido[3,2-b][1,4]oxazin-3-one formate]
11 | 0.5 µg/mL (≈ 0.915 µM) | 2 µg/mL (≈ 3.66 µM) | 8 µg/mL (≈ 14.6 µM) | 2 µg/mL (≈ 3.66 µM) | – | – | – | – | NCCCCCOc1cccc(-c2cccc(CNCC[C@H]3CN(c4ccc5c(n4)NC(=O)CO5)C(=O)O3)c2)n1 [Example 20, 6-[(S)-5-(2-{3-[6-(5-amino-pentyloxy)-pyridin-2-yl]-benzylamino}-ethyl)-2-oxo-oxazolidin-3-yl]-4H-pyrido[3,2-b][1,4]oxazin-3-one]
12 | 0.5 µg/mL (≈ 0.962 µM) | 0.5 µg/mL (≈ 0.962 µM) | 2 µg/mL (≈ 3.85 µM) | 0.5 µg/mL (≈ 0.962 µM) | – | – | – | – | NCCOc1cccc(-c2cccc(CNCC[C@@H]3CN(c4ccc5c(c4)NC(=O)CS5)C(=O)O3)c2)n1 [Example 22, 6-[(R)-5-(2-{3-[6-(2-amino-ethoxy)-pyridin-2-yl]-benzylamino}-ethyl)-2-oxo-oxazolidin-3-yl]-4H-benzo[1,4]thiazin-3-one]
13 | 0.125 µg/mL (≈ 0.218 µM) | 4 µg/mL (≈ 6.96 µM) | 8 µg/mL (≈ 13.9 µM) | 8 µg/mL (≈ 13.9 µM) | – | – | – | – | O=C1COc2ccc(N3C[C@H](CCNCc4cccc(-c5cccc(OCCN6CCOCC6)n5)c4)OC3=O)nc2N1 [Example 23, 6-[(S)-5-(2-{3-[6-(2-morpholin-4-yl-ethoxy)-pyridin-2-yl]-benzylamino}-ethyl)-2-oxo-oxazolidin-3-yl]-4H-pyrido[3,2-b][1,4]oxazin-3-one]
14 | 2 µg/mL (≈ 3.78 µM) | 1 µg/mL (≈ 1.89 µM) | 2 µg/mL (≈ 3.78 µM) | 1 µg/mL (≈ 1.89 µM) | – | – | – | – | O=C1COc2ccc(N3C[C@H](CCNCc4cccc(-c5cccc(OC[C@@H]6CCN6)c5)c4)OC3=O)nc2N1 [Example $101, 6-[(S)-5-(2-{[3′-((S)-1-azetidin-2-ylmethoxy)-biphenyl-3-ylmethyl]-amino}-ethyl)-2-oxo-oxazolidin-3-yl]-4H-pyrido[3,2-b][1,4]oxazin-3-one]
15 | 2 µg/mL (≈ 3.68 µM) | 1 µg/mL (≈ 1.84 µM) | 2 µg/mL (≈ 3.68 µM) | 2 µg/mL (≈ 3.68 µM) | – | – | – | – | O=C1COc2ccc(N3C[C@H](CCNCc4cccc(-c5cccc(OC[C@@H]6CCCN6)c5)c4)OC3=O)nc2N1 [Example $102, 6-((S)-2-oxo-5-(2-(((3′-(((S)-pyrrolidin-2-yl)methoxy)-[1,1′-biphenyl]-3-yl)methyl)amino)ethyl)oxazolidin-3-yl)-2H-pyrido[3,2-b][1,4]oxazin-3(4H)-one]
16 | 1 µg/mL (≈ 1.84 µM) | 2 µg/mL (≈ 3.68 µM) | 4 µg/mL (≈ 7.36 µM) | 4 µg/mL (≈ 7.36 µM) | – | – | – | – | CN1CC[C@H]1COc1cccc(-c2cccc(CNCC[C@H]3CN(c4ccc5c(n4)NC(=O)CO5)C(=O)O3)c2)c1 [Example $104, 6-[(S)-5-(2-{[3′-((S)-1-methyl-azetidin-2-ylmethoxy)-biphenyl-3-ylmethyl]-amino}-ethyl)-2-oxo-oxazolidin-3-yl]-4H-pyrido[3,2-b][1,4]oxazin-3-one]
17 | – | – | – | – | 2 µg/mL | 1 µg/mL | 2 µg/mL | 0.5 µg/mL | O=C1COc2ccc(N3C[C@H](CCNCc4cccc(-c5cccc(OC[C@@H]6CCN6)n5)c4)OC3=O)nc2N1.O=CO [Example $108, 6-[(S)-5-(2-{3-[6-((S)-1-azetidin-2-ylmethoxy)-pyridin-2-yl]-benzylamino}-ethyl)-2-oxo-oxazolidin-3-yl]-4H-pyrido[3,2-b][1,4]oxazin-3-oneformate]
